Results published in patent US11944622B2 (Annapurna Bio, Inc., priority 2018, dated 2024).

Biological target: T1, APJ Receptor (Homo sapiens, UniProt P35414)
T1 sequence (P35414 1-380): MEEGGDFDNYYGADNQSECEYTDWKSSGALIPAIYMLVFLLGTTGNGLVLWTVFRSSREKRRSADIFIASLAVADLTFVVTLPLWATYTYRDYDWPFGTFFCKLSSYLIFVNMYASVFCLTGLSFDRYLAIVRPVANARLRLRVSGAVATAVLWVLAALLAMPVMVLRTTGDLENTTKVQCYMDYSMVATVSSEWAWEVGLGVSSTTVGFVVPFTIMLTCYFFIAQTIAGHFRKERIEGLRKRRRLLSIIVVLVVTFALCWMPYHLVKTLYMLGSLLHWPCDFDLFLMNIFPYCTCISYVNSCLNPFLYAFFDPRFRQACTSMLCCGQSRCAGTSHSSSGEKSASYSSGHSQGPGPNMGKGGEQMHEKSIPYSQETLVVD
Assay: APJ cAMP assay (DiscoverX enzyme fragment complementation; inhibition of forskolin-stimulated cAMP)
Assay type: cell-based
Details: CHO-K1 cell line stably expressing the APJ Receptor; EC80 forskolin; 30 minutes at 37° C.; read-out: Potency Range (APJ cAMP EC50)
Description: Activation of APJ receptor is known to inhibit forskolin-stimulated cyclic AMP (cAMP) production in cells in a pertussis toxin-sensitive manner which indicates primary coupling to the GαI subunit of the G protein heterotrimeric complex. In addition to signaling through G protein and inhibition of cAMP, APJ receptor activation also results in β-arrestin recruitment, receptor internalization and activation of extracellular-regulated kinases (ERKs).
In order to optimize functional activity directed toward Gi coupling we utilized a CHO-K 1 cell line developed by DiscoverX stably expressing the APJ Receptor. Cells expressing APJR receptor were plated in a 384-well microtiter plates and incubated overnight at 37° C. with 5% CO2 to allow the cells to attach and grow. Media was then aspirated from the cells and replaced with 15 uL 2:1 Hanks Balanced Salt Solution (HBSS)/10 mM Hepes:cAMP XS+Ab reagent. Five microliters (5 uL) of previously generated compound sample stocks at 4× final concentration in assay buffer containing 4× EC80 forskolin were then added to the cells and allowed to incubate at 37° C. for 30 minutes.
After incubation the assay signal was generated using a technology termed enzyme fragment complementation (EFC). In EFC the enzyme B-galactosidase is split into two complementary portions (EA and ED). The fragment ED is fused to cAMP and in the assay format competes with endogenous cAMP for binding to a cAMP specific antibody. Activated B-Gal is formed when exogenous EA fragment binds to free ED-cAMP (not bound to cAMP specific antibody). Activated enzyme levels are detected through conversion of B-gal chemiluminescent substrate which generates a detectable luminescence signal and read on standard microtiter plate.
The methodology for detection of cAMP using EFC requires incubation with 20 uL of cAMP XS+ED/CL lysis cocktail for one hour followed by incubation with 20 uL cAMP XS+EA reagent for three hours at room temperature. Microplates were read following signal generation with a PerkinElmer Envision instrument utilizing chemiluminescent signal detection.
Compound activity was analyzed using CBIS data analysis suite (ChemInnovation, CA). Percentage activity was calculated using the following formula: % Activity=100%×(1−(mean RLU of test sample−mean RLU of Max control)/(mean RLU of vehicle control−mean RLU of Max control))

SMILES	EC50 [nM]
CCOc1cccc(-c2nc3ncc(NS(C)(=O)=O)nc3n2-c2c(OC)ccnc2OC)n1 (atropisomer, axis not shown) [Example 84, N-(1-(2,4-Dimethoxypyridin-3-yl)-2-(6-ethoxypyridin-2-yl)-1H-imidazo[4,5-b]pyrazin-6-yl)methanesulfonamide]	1 to 100
CCOc1cccc(-c2nc3ncc(NS(C)(=O)=O)nc3n2-c2c(OC)ccnc2OC)n1 (atropisomer, axis not shown) [Example 85, N-(1-(2,4-Dimethoxypyridin-3-yl)-2-(6-ethoxypyridin-2-yl)-1H-imidazo[4,5-b]pyrazin-6-yl)methanesulfonamide]	100 to 10000
CCOc1cccc(-c2nc3ncc(Br)nc3n2-c2c(OC)cccc2OC)n1 [Example 1, 6-bromo-1-(2,6-dimethoxyphenyl)-2-(6-ethoxypyridin-2-yl)-1H-imidazo[4,5-b]pyrazine]	100 to 10000
CCOc1cccc(-c2nc3ncc(NS(C)(=O)=O)nc3n2-c2c(OC)cccc2OC)n1 [Example 2, N-(1-(2,6-dimethoxyphenyl)-2-(6-ethoxypyridin-2-yl)-1H-imidazo[4,5-b]pyrazin-6-yl)methanesulfonamide]	1 to 100
CCOc1cccc(-c2nc3ncc(NS(=O)(=O)Cc4ccccc4)nc3n2-c2c(OC)cccc2OC)n1 [Example 3, N-(1-(2,6-dimethoxyphenyl)-2-(6-ethoxypyridin-2-yl)-1H-imidazo[4,5-b]pyrazin-6-yl)-1-phenylmethanesulfonamide]	1 to 100
CCOc1cccc(-c2nc3ncc(NS(=O)(=O)CC4CC4)nc3n2-c2c(OC)cccc2OC)n1 [Example 4, 1-cyclopropyl-N-(1-(2,6-dimethoxyphenyl)-2-(6-ethoxypyridin-2-yl)-1H-imidazo[4,5-b]pyrazin-6-yl)methanesulfonamide]	1 to 100
CCOc1cccc(-c2nc3ncc(NS(=O)(=O)c4ccccc4)nc3n2-c2c(OC)cccc2OC)n1 [Example 5, N-(1-(2,6-dimethoxyphenyl)-2-(6-ethoxypyridin-2-yl)-1H-imidazo[4,5-b]pyrazin-6-yl)benzenesulfonamide]	< 1
CCOc1cccc(-c2nc3ncc(C#Cc4ccccc4)nc3n2-c2c(OC)cccc2OC)n1 [Example 6, 1-(2,6-dimethoxyphenyl)-2-(6-ethoxypyridin-2-yl)-6-(phenylethynyl)-1H-imidazo[4,5-b]pyrazine]	100 to 10000
CCOc1cccc(-c2nc3ncc(CCc4ccccc4)nc3n2-c2c(OC)cccc2OC)n1 [Example 7, 1-(2,6-dimethoxyphenyl)-2-(6-ethoxypyridin-2-yl)-6-phenethyl-1H-imidazo[4,5-b]pyrazine]	1 to 100
CCOc1cccc(-c2nc3ncc(C(=O)NCc4ccccc4)nc3n2-c2c(OC)cccc2OC)n1 [Example 8, N-Benzyl-1-(2,6-dimethoxyphenyl)-2-(6-ethoxypyridin-2-yl)-1H-imidazo[4,5-b]pyrazine-6-carboxamide]	100 to 10000
CCOc1cccc(-c2nc3ncc(NC)nc3n2-c2c(OC)cccc2OC)n1 [Example 9, 1-(2,6-dimethoxyphenyl)-2-(6-ethoxypyridin-2-yl)-N-methyl-1H-imidazo[4,5-b]pyrazin-6-amine]	1 to 100
CCOc1cccc(-c2nc3ncc(N)nc3n2-c2c(OC)cccc2OC)n1 [Example 10, 1-(2,6-dimethoxyphenyl)-2-(6-ethoxypyridin-2-yl)-1H-imidazo[4,5-b]pyrazin-6-amine]	1 to 100
CCOc1cccc(-c2nc3ncc(N(Cc4ccccc4)Cc4ccccc4)nc3n2-c2c(OC)cccc2OC)n1 [Example 11, N,N-dibenzyl-1-(2,6-dimethoxyphenyl)-2-(6-ethoxypyridin-2-yl)-1H-imidazo[4,5-b]pyrazin-6-amine]	1 to 100
CCOc1cccc(-c2nc3ncc(N(C)C)nc3n2-c2c(OC)cccc2OC)n1 [Example 12, 1-(2,6-dimethoxyphenyl)-2-(6-ethoxypyridin-2-yl)-N,N-dimethyl-1H-imidazo[4,5-b]pyrazin-6-amine]	100 to 10000
